Laboratory results reported in patent publication US20070027143A1, “Novel substituted 2,3-benzodiazepine derivatives” (priority 2003, published 2007).

| Compound | melting point [°C] |
| --- | --- |
| CC1Cc2cc3c(cc2C(c2ccc(N)cc2)=NN1C1=NCCO1)OCO3 (racemic) [Example 82, (±)-5-(4-Aminophenyl)-7-(4,5-dihydro-oxazol-2-yl)-8-methyl-8,9-dihydro-7H-1,3-dioxolo-[4,5-h][2,3]benzodiazepine] | 166 to 167 |
| CC1Cc2cc3c(cc2C(c2ccc([N+](=O)[O-])cc2)=NN1c1nc(=O)n(C2CC2)s1)OCO3 (racemic) [Example 47, (±)-7-(2-Cyclopropyl-3-oxo-2,3-dihydro-1,2,4-thiadiazol-5-yl)-8-methyl-5-(4-nitrophenyl)-8,9-dihydro-7H-1,3-dioxolo[4,5-h][2,3]benzodiazepine] | 246 to 247 |
| CC1Cc2cc3c(cc2C(c2ccc(N)cc2)=NN1c1nc(=O)n(C)s1)OCO3 (racemic) [Example 103, (±)-5-(4-Aminophenyl)-8-methyl-7-(2-methyl-3-oxo-2,3-dihydro-1,2,4-thiadiazol-5-yl)-8,9-dihydro-7H-1,3-dioxolo[4,5-h][2,3]benzodiazepine] | 213 |
| CC1=Cc2cc3c(cc2C(c2ccc(N)cc2)=NN1c1ncon1)OCO3.Cl | 124 to 126 |
| CC1Cc2cc3c(cc2C(c2ccc([N+](=O)[O-])cc2)=NN1c1nnc(-c2ccccc2)s1)OCO3 (racemic) [Example 33, (±)-8-Methyl-5-(4-nitrophenyl)-7-(5-phenyl-1,3,4-thiadiazol-2-yl)-8,9-dihydro-7H-1,3-dioxolo[4,5-h][2,3]benzodiazepine] | 210 to 212 |
| CC1Cc2ccc(Cl)cc2C(c2ccc(N)cc2)=NN1c1nccs1 (racemic) [Example 77, (±)-1-(4-Aminophenyl)-8-chloro-4-methyl-3-(2-thiazolyl)-4,5-dihydro-3H-[2,3]benzodiazepine] | 104 to 107 |
| CC(=O)OCc1nnc(N2N=C(c3ccc([N+](=O)[O-])c(C)c3)c3cc4c(cc3C[C@H]2C)OCO4)s1 [Example 141, (R)-7-(5-Acetoxymethyl-1,3,4-thiadiazol-2-yl)-8-methyl-5-(3-methyl-4-nitrophenyl)-8,9-dihydro-7H-1,3-dioxolo[4,5-h][2,3]benzodiazepine] | 110 to 115 |
| CCOC(=O)c1csc(N2N=C(c3ccc(N)cc3)c3cc4c(cc3CC2C)OCO4)n1 (racemic) [Example 67, (±)-5-(4-Aminophenyl)-7-(4-ethoxycarbonyl-thiazol-2-yl)-8-methyl-8,9-dihydro-7H-1,3-dioxolo-[4,5-h][2,3]benzodiazepine] | 251 to 252 |
| Cc1cc(C2=NN(C3=NN=C(C(=O)OCc4ccccc4)[SH]3CN)[C@H](C)Cc3cc4c(cc32)OCO4)ccc1[N+](=O)[O-] (stereo partly drawn) [Example 145, (R)-7-(5-Benzyloxycarbonyl-aminomethyl-1,3,4-thiadiazol-2-yl)-8-methyl-5-(3-methyl-4-nitrophenyl)-8,9-dihydro-7H-1,3-dioxolo[4,5-h][2,3]benzodiazepine] | 240 to 243 |
| CC1Cc2cc3c(cc2C(c2ccc(N)cc2)=NN1C1=NC(=O)CCS1)OCO3 (racemic) [Example 73, (±)-5-(4-Aminophenyl)-7-(5,6-dihydro-4-oxo-4H-1,3-thiazin-2-yl)-8-methyl-8,9-dihydro-7H-1,3-dioxolo-[4,5-h][2,3]benzodiazepine] | 226 to 228 |
| CC(=O)Nc1ccc(C2=NN(C3=NCCS3)[C@@H](C)Cc3cc4c(cc32)OCO4)cc1 [Example 126, (S)-5-(4-Acetylaminophenyl)-7-(4,5-dihydro-thiazol-2-yl)-8-methyl-8,9-dihydro-7H-1,3-dioxolo-[4,5-h][2,3]benzodiazepine] | 148 to 154 |
| CC(=O)Nc1ccc(C2=NN(c3nccs3)[C@@H](C)Cc3cc4c(cc32)OCO4)cc1 [Example 124, (S)-5-(4-Acetylaminophenyl)-8-methyl-7-(2-thiazolyl)-8,9-dihydro-7H-1,3-dioxolo-[4,5-h][2,3]benzodiazepine] | 124 to 128 |
